# According to US9963476B2, “Antioxidant compound having anti atherosclerotic effect and preparation thereof” (Council of Scientific and Industrial Research, priority 2015, dated 2018):
# Key:
# [1] = system: human aortic endothelial cells (HAEC); test: Trypan blue cell viability assay, oxidant-induced endothelial cell death; format: cell-based; conditions: 2.5 μM, 2 h pretreatment, H2O2 500 μM or Ang-II 500 nM, 24 h
# Description: Human aortic endothelial cells (HAECs) were obtained from ATCC (Manassas, Va.) and maintained (37° C. 5% CO2) in basal medium supplemented with 10% FBS, VEGF (5 ng/mL), hEGF (5 ng/mL), hFGF (5 ng/mL), IGF-1 (15 ng/mL), ascorbic acid (50 μg/mL), hydrocortisone (1 μg/mL), amphotericin (15 ng/mL), gentamicin (30 ng/mL) and heparin (0.75 Units/mL). Cells used in this study were between passages 4 and 9. Esculetin, Mito-Esc, TPP and nitric oxide synthase inhibitor (L-NAME) were added 2 h before the addition of H2O2 or Ang-II.
# At the end of the treatments, cells were harvested and re-suspended in 0.4% trypan blue (Life Technologies) and percent cell viability was counted using cell countess chamber (Life Technologies).
# For this, cells were pretreated for 2 h with either Mito-Esc or esculetin before they were incubated with either H2O2 or Ang-II.
# [2] = system: TNF-α, IFN-γ, MCP-1, Mac-3; test: Serum proinflammatory cytokines and Mac-3 levels in ApoE−/− mice
# Description: (§1) Experiments were conducted in 2-month-old male apolipoprotein E knockout (ApoE^−/−) mice according to the guidelines formulated for care and use of animals in scientific research (ICMR, New Delhi, India) at a CPCSEA (Committee for the Purpose of Control and Supervision of Experiments on Animals) registered animal facility. […] Animals were randomly divided into 3 groups each n=7:1) control 2) Ang-II treatment and 3) Mito-Esculetin+Ang-II treatment. Ang-II and Mito-Esculetin treatment groups received Ang-II (sigma) at a dose of 1.44 mg/kg/day for 6 weeks through sub-cutaneous route where as control group received normal saline. Mito-Esculetin treatment group received the compound at a dose of 0.5 mg/kg/day in normal drinking water. All animals were fed on normal chow throughout the study. After 6 weeks, all groups of animals were sacrificed as per standard protocols for euthanasia.
# (§2) We further analyzed the vascular remodelling employing histological stains in tissue sections of thoracic aortas. […] In tune with this, we have also measured Mac-3 levels by flow cytometry.
# [3] = system: AMPK1-α phosphorylation (Thr-172); test: Western blot of AMPK phosphorylation in HAEC; format: cell-based, human
# Description: Previously, it was shown that AMPK co-immunoprecipitates with cardiac endothelial NO synthase (eNOS) and phosphorylates Ser-1177 in the presence of Ca^2+-calmodulin (CaM) to activate eNOS both in vitro and during ischaemia in rat hearts (FEBS Lett. (1999) 443:285-289). To test whether Mito-Esc mediates increased phosphorylation of eNOS through AMPK activation, initially, HAEC were treated various concentrations of Mito-Esc (1-5 μM) for 8 h and AMPK1-α phosphorylation (Thr-172) levels were measured. […] Next, we investigated the phospho-AMPK1-α levels in HAEC treated with H2O2 in the presence or absence of either Mito-Esc or native esculetin.
# SIRT-3, PGC-1α, TFAM = conditions: HAEC, 8 h
# Description: At the end of the treatments, HAECs were washed with ice-cold DPBS and resuspended in RIPA buffer (20 mM Tris-HCl, pH 7.4/2.5 mM EDTA/1% Triton X-100/1% sodium deoxycholate/1% SDS/100 mM NaCl/100 mM sodium fluoride) containing protease inhibitor cocktail and phosphatase inhibitor cocktail-2 and -3. The lysate was centrifuged for 15 min at 12000×g. […] Protein bands were detected by using HRP substrate (Millipore-luminata). All the antibodies used for this study were from CST.
# Next we investigated the ability of Mito-Esc to modulate the mitochondrial biogenetic regulators namely, silent mating type information regulation 2 homolog (SIRT)-3, Peroxisome proliferator-activated receptor-gamma coactivator (PGC)-1α and mitochondrial transcription factor A (TFAM).
# [4] = system: nitric oxide generation in HAEC; test: Intracellular nitric oxide levels by DAF-2DA fluorescence; format: cell-based, human; conditions: 2.5 μM, 4 h
# Description: Intracellular nitric oxide levels were monitored by using the Diaminofluorescein-diacetate (DAF-2DA) fluorescence probe. After the treatments, cells were washed with DPBS and incubated in fresh culture medium without fetal bovine serum (FBS). DAF-2DA was added at a final concentration of 5 μM, and the cells were incubated for 30 minutes. The cells were washed twice with DPBS and maintained in culture medium. Fluorescence was monitored by using Olympus fluorescence microscope with FITC filter (λex=488 nm and […]). Fluorescence intensity was calculated by Image-Pro plus7.0 software.
# To gain mechanistic insight on Mito-Esc-mediated protection of endothelial cells from oxidant-induced endothelial cell death, initially we hypothesized that Mito-Esc may augment intracellular nitric oxide generation. To study this, HAEC were treated with both Mito-Esc and esculetin in the presence or absence of H2O2 for a period of 4 h and nitric oxide (NO) levels were monitored by DAF-2 derived green fluorescence. Previously, it has been shown that DAF-2 forms a fluorescent triazole-type product in the presence of an oxidant derived from nitric oxide and oxygen interaction (Proc. Natl. Acad. Sci. USA 99: 11127-11132; 2002.; Am. J. Physiol. Regul. Integ. Comp. Physiol. 286:R344-R431; 2004). […] Next, we investigated the possible role of endothelial nitric oxide synthase (eNOS) in mediating the Mito-Esc induced NO generation in HAEC. For this, endothelial cells were treated with various concentrations of Mito-Esc (1-5 μM) for a period of 8 h. […] To further substantiate the results of DAF fluorescence, eNOS phosphorylation was measured in HAEC incubated with either with H2O2 or Ang-II for 8 h in cells pretreated with Mito-Esc or native esculetin. It was observed that both H2O2 and Ang-II caused a reduction in Phospho eNOS (Ser-1177) levels (FIG. 4D). Ang-II treatment imposed a drastic inhibition of phospho-eNOS levels when compared to H2O2 treatment in endothelial cells (FIG. 4D).
# HAEC aging / senescence = test: Senescence-associated β-galactosidase staining; format: cell-based, human
# Description: Low and high passage number (which reflects young and aged) endothelial cells (HAEC) cells were treated with various concentrations of H2O2 (50-500 μM)) for 8 h. Cells were washed in PBS, fixed for […] (room temperature) in 2% formaldehyde/0.2% glutaraldehyde, washed, and incubated at 37° C. with fresh senescence associated β-Gal (SA-,β-Gal) stain solution: 1 mg of 5-bromo-4-chloro-3-indolyl β-D-galactoside (X-Gal) per ml (stock=20 mg of dimethylformamide per ml)/40 mM citric acid/sodium phosphate, pH 6.0; 5 mM potassium ferrocyanide/5 mM potassium ferricyanide/150 mM NaCl/2 mM MgCl2. Staining was visualized after 24 h using a phase contrast microscope.
# To study if Mti-Esc influences vascular aging; we have studied its effect on human aortic endothelial cell (HAEC) aging. For this, we used HAEC of different passages (representing different age) from P6 (young age) to P16 (old age). Also we have grown HAEC with Mito-Esc (2.5 μM) for six generations (six passages) to understand its chronic effects in regulating endothelial cell aging phenomenon.
# [5] = system: Ang-II-induced atherosclerosis in ApoE−/− mice; test: Serum lipid profile of Ang-II treated ApoE−/− mice; format: in vivo
# Description: as §1, §2
# [6] = serum, ApoE−/− mice, 45 days, Ang-II alone or Ang-II + Mito-Esc
smiles,measurement,setting,value
O=c1cc(CCCCCCCC[P+](c2ccccc2)(c2ccccc2)c2ccccc2)c2cc(O)c(O)cc2o1.[Br-] [Mito-Esc],oxidant (H2O2 and Ang-II)-induced endothelial cell death,[1],significantly inhibited
same,"Ang-II-induced proinflammatory cytokines (TNF-α, IFN-γ, MCP-1) production",[2]; ApoE−/− mice serum,significant inhibition
same,Mac-3 levels by flow cytometry,"[2]; ApoE−/− mice, by 30 days of treatment",inhibition of Mac3 levels
same,concentration of maximum effect on phospho-AMPK1-α (Thr-172) levels,"[3]; 1-5 μM, 8 h",2.5 µM
same,phospho-AMPK1-α (Thr-172) levels,"[3]; 1-5 μM, 8 h",dose-dependent increase
same,Ang-II-mediated inhibition of phospho-AMPK1-α,"[3]; Ang-II 500 nM, co-incubation",made cells resistant
same,AMPK1-α phosphorylation in the presence of H2O2,"[3]; H2O2 500 μM, 2.5 μM, 8 h",greatly enhanced
same,"RNA and protein levels of PGC-1α, TFAM","SIRT-3, PGC-1α, TFAM; 2.5 μM",significantly increased
same,SIRT-3 levels,"SIRT-3, PGC-1α, TFAM; 1-5 μM",significantly increased
same,"Ang-II treatment induced inhibition of PGC-1A, TFAM and SIRT-3 levels","SIRT-3, PGC-1α, TFAM; Ang-II 500 nM, 2.5 μM",significantly reversed
same,"DAF-2 fluorescence (NO production), compound alone",[4],greatly enhanced
same,H2O2-mediated depletion of NO levels,[4]; H2O2 500 μM,significantly restored
same,endothelial cell aging (senescence-associated β-gal staining),"HAEC aging / senescence; HAEC, 2.5 μM chronic treatment for six passages",greatly attenuated
same,H2O2-induced premature senescence,"HAEC aging / senescence; P6 (young age) HAEC, H2O2",significantly inhibited
same,"Ang-II mediated increase in LDL, VLDL, triglycerides and total cholesterol",[5]; ApoE−/− mice serum,significantly reduced
same,serum HDL levels,[5]; ApoE−/− mice serum,significant rise
same,HDL,[5]; [6],45.53 ± 0.4 mg/dL
same,LDL,[5]; [6],218.40 ± 20.9 mg/dL
same,Total Cholesterol,[5]; [6],414.85 ± 8.2 mg/dL
same,Triglycerides,[5]; [6],150.74 ± 3.8 mg/dL
same,VLDL,[5]; [6],30.15 ± 0.4 mg/dL
